US20220323437A1, “METHODS FOR TREATING PULMONARY ARTERIAL HYPERTENSION” (ACTELION PHARMACEUTICALS LTD, priority 2019, published 2022)

Assay: Adverse events during switch from oral to i.v. selexipag and back in subjects with stable PAH (Phase 3 study)
Type: in vivo, human
Conditions: for AE incidence: Blindness unilateral / AE incidence: Chromaturia / AE incidence: Cough / AE incidence: Dyspnoea / AE incidence: Flushing / AE incidence: Headache / AE incidence: Hypokalaemia / AE incidence: Nasopharyngitis / AE incidence: Nausea / AE incidence: Oedema peripheral / AE incidence: Rhegmatogenous retinal detachment / AE incidence: Right ventricular failure / AE incidence: Upper respiratory tract infection / Subjects with at least one AE: Period 3 + follow-up (oral selexipag, up to 37 days)
Description: This was a prospective, multicenter, open-label, single-sequence, cross-over, Phase 3 study. Based on the dose of selexipag received at study entry, subjects were allocated to one of the following groups, selexipag 200-1000 μg b.i.d. or selexipag 1200-1600 μg b.i.d. See, FIG. 1. The study comprised the following periods:
(ii) Treatment and observation period: The treatment and observation period included the following consecutive periods: • Period 1 included oral selexipag pre-treatment period for 1 day, in-hospital. This period started with intake of the morning dose of oral selexipag on Day 1 at Visit 2 and ended the following day, before initiation of the first infusion of i.v. selexipag. • Period 2 included i.v. selexipag treatment period for 36 hours [3 infusions], in-hospital. This period started in the morning of Day 2 at Visit 2 with the start of the first infusion of i.v. selexipag and ended in the evening of Day 3 at Visit 2 before the evening administration of oral selexipag. Administration of oral selexipag was interrupted during the i.v. selexipag treatment period. • Period 3 included oral selexipag post-treatment period for 7 to 11 day. This period started in the evening of Day 3 at Visit 2 with the administration of oral selexipag and ended 7-11 days later, at Visit 3.
The endpoints analyzed for Period 1, Period 2, and Period 3 and follow-up period combined included discontinuations due to prostacyclin-associated AEs, adverse events (AEs) and serious adverse events (SAEs), prostacyclin-associated AEs, AEs related to injection site reactions, and PAH-related AEs.
The endpoints analyzed for (i) Period 1, Period 2, and Period 3 and follow-up period combined (ii) Period 1 and Period 2 combined, and (iii) Period 2 and Period 3 combined included discontinuations due to prostacyclin-associated AEs, discontinuations due to any AEs, AEs and SAEs, prostacyclin-associated AEs, PAH-related AEs, change from baseline in vital signs (systolic blood pressure [SBP], diastolic blood pressure [DBP], and pulse rate) and body weight, ECG abnormalities, marked laboratory abnormalities, and change from baseline in WHO FC.
The statistical analysis was mainly descriptive, without formal hypothesis testing. Exact Pearson-Clopper CIs for the incidence of AEs were computed.

[1] = Period 2 (intravenous selexipag treatment), high dose cohort (1200-1600 μg), N = 12
[2] = Period 2 (intravenous selexipag treatment), low dose cohort (200-1000 μg), N = 8
[3] = Period 2 (intravenous selexipag treatment), total, N = 20
[4] = Period 2 (iv selexipag), total, N = 20
[5] = Period 3 (oral selexipag), high dose cohort (1200-1600 μg), N = 12
[6] = Period 3 (oral selexipag), low dose cohort (200-1000 μg), N = 8
[7] = Period 3 (oral selexipag), total, N = 20
[8] = Period 3 + Follow-up (oral selexipag), total, N = 20
[9] = high dose cohort (1200-1600 μg), N = 12
[10] = low dose cohort (200-1000 μg), N = 8

With `CC(C)N(CCCCOCC(=O)NS(C)(=O)=O)c1cnc(-c2ccccc2)c(-c2ccccc2)n1` [selexipag, 2-{4-[(5,6-diphenylpyrazin-2-yl)(propan-2-yl)amino]butoxy}-N-(methanesulfonyl)acetamide] as the compound, how does the “Prostacyclin-associated AE incidence: Vomiting” value [1] read?
The value was 1 n (%).

And the “Subjects with at least one prostacyclin-associated AE” value [1]?
The value was 6 n (%).

And the “Prostacyclin-associated AE incidence: Diarrhoea” value [2]?
The value was 0 n (%).

What about the “Prostacyclin-associated AE incidence: Flushing” value [2] of the same compound?
Its value is 0 n (%).

And the “Prostacyclin-associated AE incidence: Headache” value [2]?
Its value is 1 (12.5) n (%).

What about the “Prostacyclin-associated AE incidence: Myalgia” value [2] of the same compound?
Its value is 0 n (%).

And the “Prostacyclin-associated AE incidence: Nausea” value [2]?
The value was 0 n (%).

And the “Prostacyclin-associated AE incidence: Pain in jaw” value [2]?
The value was 0 n (%).

What about the “Prostacyclin-associated AE incidence: Tension headache” value [2] of the same compound?
Its value is 0 n (%).

And the “Prostacyclin-associated AE incidence: Vomiting” value [2]?
Its value is 0 n (%).

What about the “Subjects with at least one prostacyclin-associated AE” value [2] of the same compound?
The value was 1 (12.5) n (%).

What about the “Prostacyclin-associated AE incidence: Diarrhoea” value [3] of the same compound?
The value was 1 n (%).

And the “Prostacyclin-associated AE incidence: Flushing” value [3]?
The value was 1 n (%).

And the “Prostacyclin-associated AE incidence: Headache” value [3]?
Its value is 4 n (%).

What about the “Prostacyclin-associated AE incidence: Myalgia” value [3] of the same compound?
Its value is 1 n (%).

And the “Prostacyclin-associated AE incidence: Nausea” value [3]?
Its value is 1 n (%).

And the “Prostacyclin-associated AE incidence: Pain in jaw” value [3]?
Its value is 1 n (%).

What about the “Prostacyclin-associated AE incidence: Tension headache” value [3] of the same compound?
The value was 1 n (%).

And the “Prostacyclin-associated AE incidence: Vomiting” value [3]?
Its value is 1 n (%).

What about the Deaths [4] of the same compound?
The Deaths was 0 n (%).

And the “Discontinuations due to prostacyclin-associated AEs” value [4]?
The value was 0 n (%).

And the “Number of subjects with at least one Injection site reaction-AE (ISR-AE)” value [4]?
The value was 2 n (%).

And the “Number of subjects with at least one Prostacyclin-associated AEs” value [4]?
Its value is 7 n (%).

And the “Number of subjects with at least one Serious adverse events (SAEs)” value [4]?
The value was 0 n (%).

And the “SAE incidence: Blindness unilateral” value [4]?
Its value is 0 n (%).

What about the “SAE incidence: Rhegmatogenous retinal detachment” value [4] of the same compound?
The value was 0 n (%).

What about the “SAE incidence: Right ventricular failure” value [4] of the same compound?
The value was 0 n (%).

And the “PAH-related AE: peripheral edema” value (Period 3)?
The value was 2 subjects.

And the “PAH-related AE: right ventricular failure in the context of respiratory tract infection” value (Period 3)?
The value was 1 subject.

And the “subjects with PAH-related AEs” value (Period 3)?
The value was 3 subjects.

What about the “SAE incidence: Right ventricular failure” value (Period 3 (oral selexipag) + Follow-up, total, N = 20) of the same compound?
Its value is 1 n (%).

What about the “Prostacyclin-associated AE incidence: Flushing” value [5] of the same compound?
The value was 1 n (%).

And the “Prostacyclin-associated AE incidence: Headache” value [5]?
Its value is 1 n (%).

And the “Prostacyclin-associated AE incidence: Nausea” value [5]?
The value was 1 n (%).

What about the “Prostacyclin-associated AE incidence: Flushing” value [6] of the same compound?
Its value is 0 n (%).

And the “Prostacyclin-associated AE incidence: Headache” value [6]?
Its value is 0 n (%).

What about the “Prostacyclin-associated AE incidence: Nausea” value [6] of the same compound?
The value was 0 n (%).

What about the “Prostacyclin-associated AE incidence: Flushing” value [7] of the same compound?
The value was 1 n (%).

What about the “Prostacyclin-associated AE incidence: Headache” value [7] of the same compound?
The value was 1 n (%).

And the “Prostacyclin-associated AE incidence: Nausea” value [7]?
The value was 1 n (%).

What about the Deaths [8] of the same compound?
The Deaths was 0 n (%).

What about the “Discontinuations due to prostacyclin-associated AEs” value [8] of the same compound?
Its value is 0 n (%).

And the “Number of subjects with at least one Injection site reaction-AE (ISR-AE)” value [8]?
The value was 0 n (%).

What about the “Number of subjects with at least one Prostacyclin-associated AEs” value [8] of the same compound?
Its value is 1 n (%).

What about the “Number of subjects with at least one Serious adverse events (SAEs)” value [8] of the same compound?
The value was 2 n (%).

And the “AE incidence: Blindness unilateral” value [9]?
Its value is 1 n (%).

What about the “AE incidence: Chromaturia” value [9] of the same compound?
Its value is 1 n (%).

What about the “AE incidence: Cough” value [9] of the same compound?
The value was 1 n (%).

And the “AE incidence: Dyspnoea” value [9]?
Its value is 1 n (%).

What about the “AE incidence: Flushing” value [9] of the same compound?
The value was 1 n (%).

And the “AE incidence: Headache” value [9]?
Its value is 1 n (%).

And the “AE incidence: Hypokalaemia” value [9]?
The value was 1 n (%).

What about the “AE incidence: Nasopharyngitis” value [9] of the same compound?
The value was 0 n (%).

What about the “AE incidence: Nausea” value [9] of the same compound?
The value was 1 n (%).

What about the “AE incidence: Oedema peripheral” value [9] of the same compound?
The value was 1 n (%).

And the “AE incidence: Rhegmatogenous retinal detachment” value [9]?
Its value is 1 n (%).

What about the “AE incidence: Right ventricular failure” value [9] of the same compound?
The value was 1 n (%).

And the “AE incidence: Upper respiratory tract infection” value [9]?
Its value is 1 n (%).

What about the “Subjects with at least one AE” value [9] of the same compound?
Its value is 6 n (%).

And the “AE incidence: Blindness unilateral” value [10]?
Its value is 0 n (%).

And the “AE incidence: Chromaturia” value [10]?
Its value is 0 n (%).

And the “AE incidence: Cough” value [10]?
Its value is 0 n (%).

What about the “AE incidence: Dyspnoea” value [10] of the same compound?
The value was 0 n (%).

And the “AE incidence: Flushing” value [10]?
The value was 0 n (%).

And the “AE incidence: Headache” value [10]?
Its value is 0 n (%).

And the “AE incidence: Hypokalaemia” value [10]?
The value was 0 n (%).

And the “AE incidence: Nasopharyngitis” value [10]?
Its value is 1 (12.5) n (%).

What about the “AE incidence: Nausea” value [10] of the same compound?
Its value is 0 n (%).

And the “AE incidence: Oedema peripheral” value [10]?
Its value is 1 (12.5) n (%).

And the “AE incidence: Rhegmatogenous retinal detachment” value [10]?
Its value is 0 n (%).

What about the “AE incidence: Right ventricular failure” value [10] of the same compound?
Its value is 0 n (%).

And the “AE incidence: Upper respiratory tract infection” value [10]?
Its value is 0 n (%).

What about the “Subjects with at least one AE” value [10] of the same compound?
Its value is 2 (25.0) n (%).

And the “AE incidence: Blindness unilateral” value (total, N = 20)?
Its value is 1 n (%).

And the “AE incidence: Chromaturia” value (total, N = 20)?
The value was 1 n (%).

What about the “AE incidence: Cough” value (total, N = 20) of the same compound?
Its value is 1 n (%).

And the “AE incidence: Dyspnoea” value (total, N = 20)?
Its value is 1 n (%).

What about the “AE incidence: Flushing” value (total, N = 20) of the same compound?
The value was 1 n (%).

And the “AE incidence: Headache” value (total, N = 20)?
The value was 1 n (%).

What about the “AE incidence: Hypokalaemia” value (total, N = 20) of the same compound?
Its value is 1 n (%).

What about the “AE incidence: Nasopharyngitis” value (total, N = 20) of the same compound?
Its value is 1 n (%).

What about the “AE incidence: Nausea” value (total, N = 20) of the same compound?
Its value is 1 n (%).

What about the “AE incidence: Oedema peripheral” value (total, N = 20) of the same compound?
The value was 2 n (%).

What about the “AE incidence: Rhegmatogenous retinal detachment” value (total, N = 20) of the same compound?
The value was 1 n (%).

And the “AE incidence: Right ventricular failure” value (total, N = 20)?
The value was 1 n (%).

What about the “AE incidence: Upper respiratory tract infection” value (total, N = 20) of the same compound?
The value was 1 n (%).

What about the “Subjects with at least one AE” value (total, N = 20) of the same compound?
The value was 8 n (%).

And the “PAH-related AEs” value (Periods 1 and 2)?
The value was “No PAH-related AEs”.

What about the “AE profile during treatment with i.v. selexipag” value (conclusion) of the same compound?
Its value is “consistent with the known safety profile of selexipag”.

And the “tolerability of the switch from oral selexipag (Period 1) to i.v. selexipag (Period 2) and back to oral selexipag (Period 3)” value (conclusion)?
Its value is “well tolerated”.

And the Deaths (whole study)?
The Deaths was “No subject died”.

What about the “discontinued study treatment due to an AE” value (whole study) of the same compound?
Its value is “No subject”.

And the “prostacyclin-associated AEs reported as severe, serious, or resulting in discontinuation of study treatment” value (whole study)?
Its value is “None”.
